Measurements reported in patent US20220265775A1, “COMPOSITIONS AND METHODS FOR TREATING PULMONARY EDEMA OR LUNG INFLAMMATION” (priority 2019, published 2022).

Columns and labels:
[1] = Single dose toxicokinetic (TK) study, intratracheal instillation of T3, serum total T3 by chemiluminescence assay; set-up: species or system Sprague-Dawley rats; details: Sprague-Dawley, rat; for AUC(0-t) / Cmax / Cmax_D / Tmax / Vz_F_obs: inhaled or intranasal
Method: Sixty animals (plus two spare animals/sex/group) were anesthetized and dosed via intratracheal instillation of test or control materials for five consecutive days. On the day after the last dose a terminal blood collection was performed for clinical pathology, after which animals were euthanized and a gross examination of all organs was performed by a board certified veterinary pathologist. Select tissues were collected for histopathology. […] Terminal blood collection was performed at two designated time points per animal up to 24 hours after administration for toxicokinetic evaluation. TK animals were euthanized without further evaluation after the final blood collection. All animals were acclimated for a minimum of seven days prior to the dosing procedure. Animals underwent baseline observations and examinations prior to the initiation of the study, and clinical observations and body weight monitoring were performed throughout the in-life portion of the study. All animals received the same dose volume (0.3 mL) of either test or control materials. This maximum feasible dose (MFD) is constrained by the maximum volume that can be safely and reproducibly (over five days) instilled into lungs of rats weighing 250 g to 350 g, which was determined in preliminary toxicology studies to be 0.3 mL. Actual doses delivered are reported as both μg/kg body weight and μg/gm wet lung weight. The toxicity phase animals were 72-135 days of age at the time of initial dosing. Males weighed between 256.52 g and 307.50 g with a mean±standard deviation of 286.74±11.77 g, and females weighed between 250.46 g and 299.01 g with a mean±standard deviation of 260.64±10.34 g. The TK phase animals were 68-144 days of age at the time of initial dosing. Males weighed between 261.23 g and 316.19 g; females weighed between 250.06 g and 280.32 g.
For toxicokinetic experiments, rats were anesthetized with combination of ketamine 40 mg/kg to 200 mg/kg and xylazine 1 mg/kg to 7 mg/kg, intraperitoneally (IP), to effect for dosing procedures, and dosed intratracheally with liothyronine sodium injection as previously described. Depending on the duration of time between dosing and the first or second blood collection time points, animals either had blood collected while still anesthetized under the injectable anesthetics, or if recovered, they were anesthetized with Isoflurane 2-5% and oxygen 1-1.5 L/minute by inhalation anesthesia via nose cone, as needed, to maintain adequate anesthesia depth (assessed by toe pinch). Topical proparicaine anesthetic ophthalmic solution was applied to each eye prior to performing the first blood collection and allowed time to take effect. Collection of serum samples for TK analysis was as described for serum chemistry samples above, and samples were stored at ≤−70° C. until assayed. Animals were euthanized with EUTHASOL (Virbac Corp., Fort Worth, Tex.) ≥86 mg/kg IP to effect following the final blood collection.
For assessment of serum T3 levels samples were sent to the Fairview University of Minnesota Medical Center East Bank Diagnostic Laboratory for analysis, a clinical laboratory certified by CLIA and CAP. Prior to sending serum samples to the analytical lab each sample was diluted 1:4 or 1:8 in normal (0.9%) saline. […] Samples were analyzed by a chemiluminescence assay for total triiodothyronine (T3).
An evaluation of the TK analysis was performed by Dick Brundage, PhD, University of Minnesota. Toxicokinetic parameters were estimated using Phoenix 64 WinNonlin pharmacokinetic software version 7.0. (Pharsight Corp., Mountain View, Calif.). A non-compartmental (NCA) approach consistent with the route of administration was used for parameter estimation. […] Whenever possible, mean concentrations were derived from three animals/gender/time point. Parameters were estimated using sampling times relative to the start of each dose administration. […]

Akt = assay: Western blot of Akt phosphorylation in RLE-6TN cells under hyperoxia; assay type: cell-based, rat; details: hyperoxia for 24 hours, T3 added for 20 minutes, vs room air control and hyperoxia alone
Method: FIG. 12. T3-induced increase activation of Akt by phosphorylation. (A) T3 augmented phosphorylation of Akt (p-Akt). […] (C) The PI3K inhibitor wortmannin blocked the T3-induced increase in total cellular amount of HO-1 protein.
The cells were lysed in lysis buffer containing 20 mM Tris HCl (pH 7.5), 150 mM NaCl, 1 mM EDTA, 1 mM EGTA, 1% (vol/vol) Triton X-100 with protease inhibitors (1 mM PMSF, 2 μg/ml pepstatin, and 10 μg/ml each of aprotinin and leupeptin), and phosphatase inhibitors (2.5 mM sodium pyrophosphate, 1 mM β-glycerophosphate, and 1 mM Na3VO4). The lysate was drawn 10 times through a 25-gauge needle on ice for further lysis and then was centrifuged at 13,000 rpm for 15 minutes at 4° C. The supernatant was collected, and the protein concentrations were determined by use of the BCA protein assay kit (Sigma-Aldrich, St. Louis, Mo.). Immediately after this step, equal amounts of protein were subjected to Western blotting analysis.

[2] = test system: hyperoxia-induced lung injury; assay: Lung lavage (BAL) analyses in hyperoxia-exposed rats: protein concentration and cell counts; assay type: in vivo, Sprague Dawley rats
From the text: All experimental protocols for animal treatments were approved by the University of Minnesota Institutional Animal Care and Use Committee. […] The room-air control rats were kept in the University animal housing facility. At the end of hyperoxic exposure, rats were sacrificed by intraperitoneal pentobarbital injection, and the lungs were harvested; the right lobes were allocated for histopathology, measurement of lung tissue myeloperoxidase (MPO) activity and wet-to-dry weight ratio. The left lobes underwent bronchoalveolar lavage (BAL) to determine BAL protein concentrations and differential cell counts.
Bronchoalveolar lavage (BAL) of the left lung was performed using a modification of a method previously described (Pace et al., Exp Lung Res 35:380-398, 2009). Briefly, 4 mls of ice-chilled 1×PBS (pH 7.4) were instilled into the left lung, withdrawn, and re-instilled two subsequent times prior to analysis of the lavage fluid. The retrieved BAL fluid was centrifuged at 1500 rpm for 10 minutes to remove cells and debris. The cell pellet was resuspended in 1 ml of 1×PBS (pH 7.4) and total cell number was counted using a hemocytometer. BAL cytospin preparations were stained using the Hema3 stain kit (Thermo Fisher Scientific, Inc., Waltham, Mass.) to identify the nucleated cells. The protein concentration was determined on the supernatants of BAL fluid using a standard BCA assay (Sigma-Aldrich, St. Louis, Mo.).

SMILES: N[C@@H](Cc1cc(I)c(Oc2ccc(O)c(I)c2)c(I)c1)C(=O)O [T3, triiodothyronine]
- concentration at 15 min ([1]; in vivo, male rats, individual animals, 15 min, single intratracheal dose 2.7 μg (~10.0 μg/kg)): 2.44 ng/mL
- Cl_F_obs ([1]; female): 30.10 mL/h
- HL_Lambda_z ([1]; female): 2.85 h
- AUC(0-t) ([1]; female): 64.1 ng·h/mL
- Cmax ([1]; female): 16.5 ng/mL
- Cmax_D ([1]; female): 6.12 ng/mL/µg
- Tmax ([1]; female): 2 h
- Vz_F_obs ([1]; female): 123.60 mL
- Cl_F_obs ([1]; male): 74.29 mL/h
- HL_Lambda_z ([1]; male): 3.17 h
- AUC(0-t) ([1]; male): 25.4 ng·h/mL
- Cmax ([1]; male): 6.6 ng/mL
- Cmax_D ([1]; male): 2.44 ng/mL/µg
- Tmax ([1]; male): 1 h
- Vz_F_obs ([1]; male): 339.44 mL
- phosphorylation of Akt (p-Akt) (Akt): augmented phosphorylation of Akt at Ser473
- neutrophils among BALF cells ([2]; rats after hyperoxia with T3 treatment (data not shown)): relatively few of the BALF cells after hyperoxia were neutrophils
- BALF cell numbers ([2]; rats, 95% oxygen, 48 hours and 60 hours, T3 administration vs hyperoxia alone): significantly reduced the BALF cell numbers
- BALF protein concentration ([2]; rats, hyperoxia, 48 hour and 60 hour time points, T3 administration vs hyperoxia alone): attenuated significantly the hyperoxic increases
